Tested on: GRMD plasma proteins
Format: in vivo, dog
Details: EDG-5506 treatment to GRMD baseline; Increased in GRMD

O=c1ccc(-c2cnc(OCC(F)(F)F)nc2)nn1Cc1cncc(F)c1 [EDG-5506]
Change from GRMD Baseline (fraction): Fibronectin Fragment 4 (FN1): -0.0853 fraction
Change from GRMD Baseline (fraction): Follistatin (FST): -0.1433 fraction
Change from GRMD Baseline (fraction): Fractalkine (CX3CL1): -0.1153 fraction
Change from GRMD Baseline (fraction): Fructose-bisphosphate aldolase A (ALDOA): 0.1605 fraction
Change from GRMD Baseline (fraction): G2/mitotic-specific cyclin-B1 (CCNB1): -0.0054 fraction
Change from GRMD Baseline (fraction): Galectin-4 (LGALS4): -0.0907 fraction
Change from GRMD Baseline (fraction): Galectin-7 (LGALS7): -0.1308 fraction
Change from GRMD Baseline (fraction): Glucose-6-phosphate isomerase (GPI): -0.4647 fraction
Change from GRMD Baseline (fraction): Glyceraldehyde-3-phosphate dehydrogenase (GAPDH): -0.5078 fraction
Change from GRMD Baseline (fraction): Glycogen synthase kinase-3 alpha/beta (GSK3A GSK3B): -0.3338 fraction
Change from GRMD Baseline (fraction): Granulocyte-macrophage colony-stimulating factor (CSF2): -0.2326 fraction
Change from GRMD Baseline (fraction): Growth factor receptor-bound protein 2 (GRB2): -0.3399 fraction
Change from GRMD Baseline (fraction): Growth/differentiation factor 5 (GDF5): -0.0403 fraction
Change from GRMD Baseline (fraction): Heat shock 70 kDa protein 1A (HSPA1A): -0.2859 fraction
Change from GRMD Baseline (fraction): Heat shock cognate 71 kDa protein (HSPA8): -0.3616 fraction
Change from GRMD Baseline (fraction): Heat shock protein HSP 90-alpha/beta (HSP90AA1 HSP90AB1): -0.1032 fraction
Change from GRMD Baseline (fraction): Heat shock protein HSP 90-beta (HSP90AB1): -0.0167 fraction
Change from GRMD Baseline (fraction): Heat shock protein beta-1 (HSPB1): -0.0454 fraction
Change from GRMD Baseline (fraction): Hepatoma-derived growth factor-related protein 2 (HDGFRP2): -0.0887 fraction
Change from GRMD Baseline (fraction): Heterogeneous nuclear ribonucleoprotein A/B (HNRNPAB): -0.2641 fraction
Change from GRMD Baseline (fraction): Heterogeneous nuclear ribonucleoprotein Q (SYNCRIP): -0.2959 fraction
Change from GRMD Baseline (fraction): Heterogeneous nuclear ribonucleoproteins A2/B1 (HNRNPA2B1): -0.2792 fraction
Change from GRMD Baseline (fraction): Hexokinase-2 (HK2): -0.2831 fraction
Change from GRMD Baseline (fraction): Histidine triad nucleotide-binding protein 1 (HINT1): -0.1184 fraction
Change from GRMD Baseline (fraction): Histone H1.2 (HIST1H1C): -0.2004 fraction
Change from GRMD Baseline (fraction): Histone deacetylase 8 (HDAC8): -0.1223 fraction
Change from GRMD Baseline (fraction): Homeodomain-interacting protein kinase 3 (HIPK3): 0.4673 fraction
Change from GRMD Baseline (fraction): Immunoglobulin superfamily containing leucine-rich repeat protein 2 (ISLR2): 0.163 fraction
Change from GRMD Baseline (fraction): Inducible T-cell costimulator (ICOS): -0.069 fraction
Change from GRMD Baseline (fraction): Inosine-5'-monophosphate dehydrogenase 2 (IMPDH2): -0.2973 fraction
Change from GRMD Baseline (fraction): Insulin-degrading enzyme (IDE): -0.2351 fraction
Change from GRMD Baseline (fraction): Insulin-like growth factor-binding protein 3 (IGFBP3): -0.1253 fraction
Change from GRMD Baseline (fraction): Intercellular adhesion molecule 5 (ICAM5): 0.2028 fraction
Change from GRMD Baseline (fraction): Interferon alpha-10 (IFNA10): 0.155 fraction
Change from GRMD Baseline (fraction): Interleukin-1 alpha (IL1A): -0.061 fraction
Change from GRMD Baseline (fraction): Interleukin-1 receptor-like 2 (IL1RL2): -0.0194 fraction
Change from GRMD Baseline (fraction): Interleukin-15 receptor subunit alpha (IL15RA): -0.1087 fraction
Change from GRMD Baseline (fraction): Interleukin-17F (IL17F): -0.0145 fraction
Change from GRMD Baseline (fraction): Interleukin-37 (IL37): -0.0864 fraction
Change from GRMD Baseline (fraction): Junctional adhesion molecule B (JAM2): -0.0925 fraction
Change from GRMD Baseline (fraction): Junctional adhesion molecule C (JAM3): -0.1846 fraction
Change from GRMD Baseline (fraction): Kallikrein-6 (KLK6): -0.0597 fraction
Change from GRMD Baseline (fraction): Kallikrein-12 (KLK12): 0.0192 fraction
Change from GRMD Baseline (fraction): Kallikrein-14 (KLK14): -0.165 fraction
Change from GRMD Baseline (fraction): Kin of IRRE-like protein 3 (KIRREL3): -0.0664 fraction
Change from GRMD Baseline (fraction): Kremen protein 2 (KREMEN2): -0.1517 fraction
Change from GRMD Baseline (fraction): Kynureninase (KYNU): -0.1154 fraction
Change from GRMD Baseline (fraction): L-Selectin (SELL): -0.2072 fraction
Change from GRMD Baseline (fraction): L-lactate dehydrogenase B chain (LDHB): -0.3998 fraction
Change from GRMD Baseline (fraction): Leucine-rich repeat serine/threonine-protein kinase 2 (LRRK2): -0.1394 fraction
Change from GRMD Baseline (fraction): Leucine-rich repeat transmembrane protein FLRT1 (FLRT1): -0.1359 fraction
Change from GRMD Baseline (fraction): Low affinity immunoglobulin epsilon Fc receptor (FCER2): -0.0521 fraction
Change from GRMD Baseline (fraction): MAP kinase-activated protein kinase 2 (MAPKAPK2): -0.3216 fraction
Change from GRMD Baseline (fraction): MAP kinase-activated protein kinase 3 (MAPKAPK3): -0.2837 fraction
Change from GRMD Baseline (fraction): Macrophage scavenger receptor types I and II (MSR1): -0.0382 fraction
Change from GRMD Baseline (fraction): Malate dehydrogenase, cytoplasmic (MDH1): -0.1486 fraction
Change from GRMD Baseline (fraction): Methionine aminopeptidase 2 (METAP2): -0.1671 fraction
Change from GRMD Baseline (fraction): Microtubule-associated protein tau (MAPT): -0.2425 fraction
Change from GRMD Baseline (fraction): Mitogen-activated protein kinase 3 (MAPK3): -0.2851 fraction
Change from GRMD Baseline (fraction): Mitogen-activated protein kinase 8 (MAPK8): -0.2995 fraction
Change from GRMD Baseline (fraction): Mitogen-activated protein kinase 12 (MAPK12): -0.3528 fraction
Change from GRMD Baseline (fraction): Mitogen-activated protein kinase 14 (MAPK14): -0.2706 fraction
Change from GRMD Baseline (fraction): Mothers against decapentaplegic homolog 3 (SMAD3): -0.0452 fraction
Change from GRMD Baseline (fraction): Myeloblastin (PRTN3): 0.0617 fraction
Change from GRMD Baseline (fraction): Myoglobin (MB): -0.422 fraction
Change from GRMD Baseline (fraction): Myosin-binding protein C, slow-type (MYBPC1): 0.1932 fraction
Change from GRMD Baseline (fraction): NKG2D ligand 2 (ULBP2): -0.0329 fraction
Change from GRMD Baseline (fraction): NSFL1 cofactor p47 (NSFL1C): -0.3479 fraction
Change from GRMD Baseline (fraction): Natural cytotoxicity triggering receptor 3 (NCR3): -0.0271 fraction
Change from GRMD Baseline (fraction): Neuronal cell adhesion molecule (NRCAM): 0.199 fraction
Change from GRMD Baseline (fraction): Neutral ceramidase (ASAH2): -0.1226 fraction
Change from GRMD Baseline (fraction): Nucleoside diphosphate kinase A (NME1): -0.3054 fraction
Change from GRMD Baseline (fraction): OCIA domain-containing protein 1 (OCIAD1): -0.019 fraction
Change from GRMD Baseline (fraction): Oncostatin-M (OSM): -0.0794 fraction
Change from GRMD Baseline (fraction): Opioid-binding protein/cell adhesion molecule (OPCML): -0.0946 fraction
Change from GRMD Baseline (fraction): PIK3CA/PIK3R1 (PIK3CA PIK3R1): -0.2992 fraction
Change from GRMD Baseline (fraction): Parathyroid hormone-related protein (PTHLH): -0.1165 fraction
Change from GRMD Baseline (fraction): Peptidyl-prolyl cis-trans isomerase E (PPIE): -0.2567 fraction
Change from GRMD Baseline (fraction): Peroxiredoxin-1 (PRDX1): -0.376 fraction
Change from GRMD Baseline (fraction): Peroxiredoxin-6 (PRDX6): -0.4044 fraction
Change from GRMD Baseline (fraction): Phosphatidylethanolamine-binding protein 1 (PEBP1): -0.1964 fraction
Change from GRMD Baseline (fraction): Phosphoglucomutase-1 (PGM1): -0.1676 fraction
Change from GRMD Baseline (fraction): Phosphoglycerate mutase 1 (PGAM1): 0.2377 fraction
Change from GRMD Baseline (fraction): Plasma serine protease inhibitor (SERPINA5): -0.1552 fraction
Change from GRMD Baseline (fraction): Platelet glycoprotein 4 (CD36): -0.0717 fraction
Change from GRMD Baseline (fraction): Platelet-activating factor acetylhydrolase (PLA2G7): -0.1993 fraction
Change from GRMD Baseline (fraction): Platelet-derived growth factor receptor alpha (PDGFRA): -0.052 fraction
Change from GRMD Baseline (fraction): Proliferating cell nuclear antigen (PCNA): -0.2439 fraction
Change from GRMD Baseline (fraction): Protein NOV homolog (NOV): -0.0815 fraction
Change from GRMD Baseline (fraction): Protein S100-A12 (S100A12): -0.0694 fraction
Change from GRMD Baseline (fraction): RAC-alpha/beta/gamma serine/threonine-protein kinase (AKT1 AKT2 AKT3): -0.3391 fraction
Change from GRMD Baseline (fraction): RAC-beta serine/threonine-protein kinase (AKT2): -0.2794 fraction
Change from GRMD Baseline (fraction): Rab GDP dissociation inhibitor beta (GDI2): -0.3851 fraction
Change from GRMD Baseline (fraction): Receptor tyrosine-protein kinase erbB-3 (ERBB3): 0.0234 fraction
Change from GRMD Baseline (fraction): Receptor-type tyrosine-protein kinase FLT3 (FLT3): -0.1824 fraction
Change from GRMD Baseline (fraction): Renin (REN): -0.0274 fraction
Change from GRMD Baseline (fraction): Retinoblastoma-associated protein (RB1): -0.0961 fraction
Change from GRMD Baseline (fraction): S-formylglutathione hydrolase (ESD): -0.2877 fraction
Change from GRMD Baseline (fraction): Serine/threonine-protein kinase 17B (STK17B): -0.0905 fraction
Change from GRMD Baseline (fraction): Serine/threonine-protein kinase Chk2 (CHEK2): 0.2279 fraction
Change from GRMD Baseline (fraction): Serine/threonine-protein kinase WNK3 (WNK3): -0.1692 fraction
Change from GRMD Baseline (fraction): Serine/threonine-protein kinase receptor R3 (ACVRL1): -0.0902 fraction
Change from GRMD Baseline (fraction): Small nuclear ribonucleoprotein F (SNRPF): -0.0313 fraction
Change from GRMD Baseline (fraction): Somatostatin-28 (SST): 0.1915 fraction
Change from GRMD Baseline (fraction): T-lymphocyte activation antigen CD80 (CD80): -0.0767 fraction
Change from GRMD Baseline (fraction): Thymic stromal lymphopoietin (TSLP): -0.0628 fraction
Change from GRMD Baseline (fraction): Thyroid peroxidase (TPO): -0.1126 fraction
Change from GRMD Baseline (fraction): Tissue factor pathway inhibitor (TFPI): 0.0479 fraction
Change from GRMD Baseline (fraction): Transcription factor AP-1 (JUN): -0.1004 fraction
Change from GRMD Baseline (fraction): Transketolase (TKT): -0.3602 fraction
Change from GRMD Baseline (fraction): Translationally-controlled tumor protein (TPT1): -0.3694 fraction
Change from GRMD Baseline (fraction): Triosephosphate isomerase (TPI1): -0.5129 fraction
Change from GRMD Baseline (fraction): Tropomyosin beta chain (TPM2): -0.0815 fraction
Change from GRMD Baseline (fraction): Troponin I, cardiac muscle (TNNI3): 0.0173 fraction
Change from GRMD Baseline (fraction): Troponin I, fast skeletal muscle (TNNI2): 0.1681 fraction
Change from GRMD Baseline (fraction): Troponin T, cardiac muscle (TNNT2): 0.0317 fraction
Change from GRMD Baseline (fraction): Tumor necrosis factor ligand superfamily member 11 (TNFSF11): -0.1211 fraction
Change from GRMD Baseline (fraction): Tumor necrosis factor receptor superfamily member 1B (TNFRSF1B): -0.1149 fraction
Change from GRMD Baseline (fraction): Tumor necrosis factor receptor superfamily member 3 (LTBR): -0.1112 fraction
